# Assays:
# [1] = target: T1, Sodium/glucose cotransporter 2 (Homo sapiens) (UniProt P31639); experiment: Inhibition of full-length human SGLT2 expressed in CHO cells assessed as decrease in [14C]-methyl alpha-D-glucopyranoside uptake at 0.5 uM after 1 hr by liquid scintillation counting method; assay type: cell-based
# T1 sequence (whole entry): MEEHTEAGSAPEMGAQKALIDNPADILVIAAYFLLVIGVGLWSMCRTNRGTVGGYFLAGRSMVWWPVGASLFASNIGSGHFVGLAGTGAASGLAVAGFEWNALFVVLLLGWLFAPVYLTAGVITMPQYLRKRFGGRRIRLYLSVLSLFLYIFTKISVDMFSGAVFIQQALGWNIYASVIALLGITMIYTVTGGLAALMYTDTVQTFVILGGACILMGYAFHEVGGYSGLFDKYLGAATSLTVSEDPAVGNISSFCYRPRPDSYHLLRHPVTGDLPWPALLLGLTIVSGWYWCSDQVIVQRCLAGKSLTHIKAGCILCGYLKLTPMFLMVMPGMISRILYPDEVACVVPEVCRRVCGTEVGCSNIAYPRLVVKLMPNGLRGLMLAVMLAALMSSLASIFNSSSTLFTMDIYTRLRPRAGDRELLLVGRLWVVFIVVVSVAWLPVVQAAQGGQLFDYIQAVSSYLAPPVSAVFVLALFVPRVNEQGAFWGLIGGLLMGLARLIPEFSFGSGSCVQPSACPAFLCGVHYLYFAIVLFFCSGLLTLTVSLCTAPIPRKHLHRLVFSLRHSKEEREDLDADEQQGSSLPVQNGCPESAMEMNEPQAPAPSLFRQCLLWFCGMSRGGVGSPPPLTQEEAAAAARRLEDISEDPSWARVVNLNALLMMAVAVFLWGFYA
# [2] = target: T2, Sodium/glucose cotransporter 2 (Homo sapiens, UniProt P31639); experiment: Inhibition of full-length human SGLT2 expressed in CHO cells assessed as decrease in [14C]-methyl alpha-D-glucopyranoside uptake after 1 hr by liquid scintillation counting method; assay type: cell-based
# T2 sequence (P31639 whole entry): T1 sequence (whole entry)
inhibition [1],IC50 [2],SMILES
97.5%,–,OC[C@H]1O[C@@H](c2cc(Cc3cc4ccccc4s3)c(Cl)cc2O)[C@H](O)[C@@H](O)[C@@H]1O
30.7%,–,COc1ccc(Cc2cc3c(cc2Cl)O[C@H]2[C@@H](O)[C@H](O)[C@@H](CO)O[C@@H]32)cc1
101%,0.81 nM,Cc1ccc(Cc2cc([C@@H]3O[C@H](CO)[C@@H](O)[C@H](O)[C@H]3O)c(O)cc2Cl)cc1
1.8%,–,OC[C@H]1O[C@H]2c3cc(Cc4cc5ccccc5s4)ccc3O[C@H]2[C@@H](O)[C@@H]1O
103%,–,CCOc1ccc(Cc2cc([C@@H]3O[C@H](CO)[C@@H](O)[C@H](O)[C@H]3O)ccc2Cl)cc1
48.7%,–,OC[C@H]1O[C@H]2c3cc(Cc4cc5ccccc5s4)c(Cl)cc3O[C@H]2[C@@H](O)[C@@H]1O
8.6%,–,CCOc1ccc(Cc2cc3c(cc2Cl)O[C@H]2[C@@H](O)[C@H](O)[C@@H](CO)O[C@@H]32)cc1
89.7%,1.03 nM,CCOc1ccc(Cc2cc([C@@H]3O[C@H](CO)[C@@H](O)[C@H](O)[C@H]3O)c(O)cc2Cl)cc1
103%,–,OC[C@H]1O[C@@H](c2cc(Cc3cc4ccccc4s3)ccc2O)[C@H](O)[C@@H](O)[C@@H]1O
104%,12.2 nM,CCOc1ccc(Cc2ccc(O)c([C@@H]3O[C@H](CO)[C@@H](O)[C@H](O)[C@H]3O)c2)cc1
100%,0.63 nM,CCc1ccc(Cc2cc([C@@H]3O[C@H](CO)[C@@H](O)[C@H](O)[C@H]3O)c(O)cc2Cl)cc1
19.3%,–,CCc1ccc(Cc2cc3c(cc2Cl)O[C@H]2[C@@H](O)[C@H](O)[C@@H](CO)O[C@@H]32)cc1
106%,1.08 nM,COc1ccc(Cc2cc([C@@H]3O[C@H](CO)[C@@H](O)[C@H](O)[C@H]3O)c(O)cc2Cl)cc1
4.2%,–,Cc1ccc(Cc2cc3c(cc2Cl)O[C@H]2[C@@H](O)[C@H](O)[C@@H](CO)O[C@@H]32)cc1
66.5%,–,CCOc1ccc(Cc2ccc3c(c2)[C@@H]2O[C@H](CO)[C@@H](O)[C@H](O)[C@@H]2O3)cc1

# Reference: ChEMBL document CHEMBL4118179, “Synthesis and biological evaluation of 6-hydroxyl C-aryl glucoside derivatives as novel sodium glucose co-transporter 2 (SGLT2) inhibitors” (Bioorg Med Chem Lett, 2018)
